Data: US20060252780A1, “Fused pyrimidine derivatives” (Kyowa Hakko Kogyo Co., Ltd., priority 2003, published 2006)
Where a name gives a salt, the structure may show the parent alone.

test system: Pancreatic β cell line MIN6 cells; test: Insulin secretion stimulating activity in cultured β cells (MIN6), insulin in the supernatant by enzyme immunoassay or radioimmunoassay; type: cell-based; conditions: drug concentration 1.0 μmol/L, 14.5 mmol/L glucose, 45 min after stimulation, average of 3 to 4 tests, None (no drug) 148.4
Description: Insulin Secretion Stimulating Activity in Cultured β Cells
Pancreatic β cell line MIN6 cells reported by Miyazaki, et al. [see Endocrinology, (1990) 127, p. […] 1139-1145]. In MIN6 cells, insulin secretion increase responding to a sulfonylurea agents, such as Glybenclamide, which are used as a therapeutic agent for diabetes (Cellular Signaling, (1993) 5, p. 777-786). Therefore, the above-mentioned culture of MIN6 cells and an insulin secretion test using the MIN6 cells were performed according to the method described in Diabetologia, (1993) 36, p. 1139-1145.
The effects of a compound on an insulin secretion activity under the presence of 14.5 mmol/L glucose was determined by measuring insulin amount in cell-culture supernatant collected as follows:
MIN6 cells cultured in a 24-well plate were washed twice with 1 mL of buffer solution A (pH 7.3) containing 2 mmol/L glucose. Buffer solution A consists of 119 mmol/L sodium chloride, 4.74 mmol/L potassium chloride, 2.54 mmol/L calcium chloride, 1.19 mmol/L magnesium sulfate, 1.19 mmol/L potassium dihydrogen phosphate, 10 mmol/L 2-[4-(2-hyroxyethyl)-1-piperazinyl]ethane sulfonic acid and 0.1% bovine serum albumin. Then, the cells were incubated in 1 mL of buffer solution A containing 2 mmol/L glucose at 37° C. for 45 minutes. After the incubation, the culture supernatant was exchanged with 0.9 mL of buffer solution A containing each test compound at various concentrations and 2 mmol/L glucose. The cells were further incubated at 37° C. for 15 minutes. Then, the MIN6 cells were stimulated with glucose by adding 0.1 mL of buffer solution A containing 127 mmol/L glucose (a final glucose concentration: 14.5 mmol/L). After the stimulation, the cells were further incubated at 37° C. for 45 minutes, and the supernatant was collected.
Antibody reactive insulin secreted in the culture supernatant was diluted with a phosphate buffer solution containing 1% bovine serum albumin, 0.1% Tween 20, 0.12% ethylenediaminetetraacetic acid (EDTA) disodium salt and 0.1% sodium azide, and then quantitatively measured by enzyme immunoassay or radioimmunoassay. The insulin levels were indicated as the amount of human insulin (ng/mLY. The results are indicated by averages (avg) and standard errors (se) of 3 to 4 tests.

| Compound | Insulin secretion content (ng/mL) ave [ng/mL] |
| --- | --- |
| CCCN1C(=O)N2C[C@@H](Cc3ccccc3)N=C2c2[nH]c(-c3ccccc3)cc21 [Compound 2, (R)-8-Benzyl-7,8-dihydro-2-phenyl-4-propyl-1H-imidazo[1,2-c]pyrrolo[2,3-e]pyrimidin-5(4H)-one] | 187.1 |
| CCCN1C(=O)N2CC(Cc3ccc(F)cc3)N=C2c2cn(-c3ccccc3)nc21 (stereo not shown) [Compound 4, 2-(4-Fluorobenzyl)-2,3-dihydro-8-phenyl-6-propyl-8H-imidazo[1,2-c]pyrazolo[4,3-e]pyrimidin-5(6H)-one] | 212.1 |
| CCCN1C(=O)N2CC(Cc3ccncc3)N=C2c2cn(-c3ccccc3)nc21 (stereo not shown) [Compound 6, 2,3-Dihydro-8-phenyl-6-propyl-2-(4-picolyl)-8H-imidazo[1,2-c]pyrazolo[4,3-e]pyrimidin-5(6H)-one] | 172.5 |
| CCCN1C(=O)N2C[C@@H](Cc3ccccc3)N=C2c2nn(-c3ccccc3)cc21 [Compound 9, (R)-8-Benzyl-7,8-dihydro-2-phenyl-4-propyl-2H-imidazo[1,2-c]pyrazolo[3,4-e]pyrimidin-5(4H)-one] | 174.3 |
| CCCN1C(=O)N2CC(Cc3ccc(Cl)cc3)N=C2c2cn(-c3ccccc3)nc21 (stereo not shown) [Compound 5, 2-(4-Chlorobenzyl)-2,3-dihydro-8-phenyl-6-propyl-8H-imidazo[1,2-c]pyrazolo[4,3-e]pyrimidin-5(6H)-one] | 190.9 |
| CCCN1C(=O)N2C[C@@H](Cc3ccccc3)N=C2c2cn(C3CCCC3)nc21 [Compound 7, (R)-2-Benzyl-8-cyclopentyl-2,3-dihydro-6-propyl-8H-imidazo[1,2-c]pyrazolo[4,3-e]pyrimidin-5(6H)-one hydrochloride] | 224.8 |
| CCCN1C(=O)N2C[C@@H](Cc3ccccc3)N=C2c2cn(-c3ccccc3)nc21 [Compound 3, (R)-2-Benzyl-2,3-dihydro-8-phenyl-6-propyl-8H-imidazo[1,2-c]pyrazolo[4,3-e]pyrimidin-5(6H)-one] | 213.2 |
| CCCN1C(=O)N2C[C@@H](Cc3ccncc3)N=C2c2cn(C3CCCC3)nc21 [Compound 8, (R)-8-Cyclopentyl-2,3-dihydro-6-propyl-2-(4-picolyl)-8H-imidazo[1,2-c]pyrazolo[4,3-e]pyrimidin-5(6H)-one] | 183.9 |
| CCCN1C(=O)N2C[C@@H](Cc3ccccc3)N=C2c2cc(-c3ccccc3)[nH]c21 [Compound 1, (R)-2-Benzyl-2,3-dihydro-8-phenyl-6-propyl-7H-imidazo[1,2-c]pyrrolo[3,2-e]pyrimidin-5(6H)-one] | 204.3 |
| CCCN1C(=O)N2C[C@@H](Cc3ccccc3)N=C2c2nn(C3CCCC3)cc21 [Compound 10, (R)-8-Benzyl-2-cyclopentyl-7,8-dihydro-4-propyl-2H-imidazo[1,2-c]pyrazolo[3,4-e]pyrimidin-5(4H)-one hydrochloride] | 184.7 |
